For one assay, the species on record is Sus scrofa. The assay can be described thus: Inhibition of pig brain tubulin polymerization at 1 uM by spectrometric method relative to control. Type of assay: tissue-based.
Assay [1] deals with A549. The experiment in a line: Induction of apoptosis in human A549 cells assessed as increase in necrotic cells at 50 nM measured after 24 hrs by PI/FITC analysis (reference value: 0.365%). Type of assay: functional.
Assay [2] relates to U-251. The assay can be described thus: Induction of apoptosis in human U-251 cells assessed as increase in late apoptotic cells at 500 nM measured after 24 hrs by PI/FITC analysis (reference value: 0.311%). The format is functional.
Assay [3] concerns U-251. The experiment in a line: Induction of apoptosis in human U-251 cells assessed as increase in early apoptotic cells at 200 nM measured after 24 hrs by PI/FITC analysis (reference value: 1.12%). Type of assay: functional.
Assay [4] relates to U-251. The assay can be described thus: Induction of apoptosis in human U-251 cells assessed as increase in late apoptotic cells at 1000 nM measured after 24 hrs by PI/FITC analysis (reference value: 0.311%). The format is functional.
Assay [5] concerns A549. The assay can be described thus: Cell cycle arrest in human A549 cells assessed as G2/M phase at 500 nM measured after 24 hrs by propidium iodide staining based flow cytometry analysis (reference value: 6.08%). The format is functional.
Assay [6] relates to U-251. The experiment in a line: Cell cycle arrest in human U-251 cells assessed as G0/G1 phase at 1000 nM measured after 24 hrs by propidium iodide staining based flow cytometry analysis (reference value: 67.34%). Type of assay: functional. A general note: Flow cytometry measures light scatter and fluorescence of single cells or particles in a stream.
The test system of assay [7] is A549. The assay can be described thus: Induction of apoptosis in human A549 cells assessed as increase in viable cells at 200 nM measured after 24 hrs by PI/FITC analysis (reference value: 98.4%). Type of assay: functional.
Assay [8] deals with A549. The assay can be described thus: Cell cycle arrest in human A549 cells assessed as S phase at 500 nM measured after 24 hrs by propidium iodide staining based flow cytometry analysis (reference value: 14.78%). The format is functional.
For assay [9], the system named is U-251. The assay can be described thus: Cell cycle arrest in human U-251 cells assessed as G0/G1 phase at 500 nM measured after 24 hrs by propidium iodide staining based flow cytometry analysis (reference value: 67.34%). Type of assay: functional.
In assay [10] the test system is A549. The experiment in a line: Cell cycle arrest in human A549 cells assessed as G0/G1 phase at 500 nM incubated for 24 hrs by propidium iodide staining based flow cytometry analysis (reference value: 79.14%). Type of assay: functional.
Assay [11] concerns A549. The assay can be described thus: Induction of apoptosis in human A549 cells assessed as increase in apoptotic cells at 500 nM measured after 24 hrs by PI/FITC analysis (reference value: 1.437%). Type of assay: functional.
In assay [12] the test system is U-251. The assay can be described thus: Induction of apoptosis in human U-251 cells assessed as increase in early apoptotic cells at 500 nM measured after 24 hrs by PI/FITC analysis (reference value: 1.12%). The format is functional.
Assay [13] deals with U-251. The experiment in a line: Induction of apoptosis in human U-251 cells assessed as increase in necrotic cells at 200 nM measured after 24 hrs by PI/FITC analysis (reference value: 0.301%). Type of assay: functional.
The test system of assay [14] is U-251. The assay can be described thus: Induction of apoptosis in human U-251 cells assessed as increase in late apoptotic cells at 200 nM measured after 24 hrs by PI/FITC analysis (reference value: 0.311%). Type of assay: functional.
For assay [15], the system named is A549. The assay can be described thus: Induction of apoptosis in human A549 cells assessed as increase in late apoptotic cells at 200 nM measured after 24 hrs by PI/FITC analysis (reference value: 0.955%). Type of assay: functional.
Assay [16] concerns A549. The assay can be described thus: Antiproliferative activity against human A549 cells after 48 hrs by MTT assay. The format is functional, cell-based. Particulars: A549, 48 h. For orientation: Tetrazolium dyes change colour on reduction, which living cells bring about.

Data on one compound can be found in ChEMBL document CHEMBL4831506, “Discovery of novel trimethoxyphenylbenzo[d]oxazoles as dual tubulin/PDE4 inhibitors capable of inducing apoptosis at G2/M phase arrest in glioma and lung cancer cells” (Eur J Med Chem, 2021).

A word on the inhibition: it is how much of the control response was suppressed. Low readings indicate little suppression, high ones strong suppression. The term IC50 denotes the concentration at which inhibition is half-maximal. Turning to `COc1cc(-c2cccc3nc(-c4ccc5cc[nH]c5c4)oc23)cc(OC)c1OC`, in the assay listed under Sus scrofa, the inhibition amounted to 40%. Besides, the Activity in the assay on A549 [1] is on record as 0.603%; in the assay on U-251 [2], 9.13%; with U-251 [3], 3.09%; in the assay with U-251 [4], 15.8%; in the assay with A549 [5], 68.09%; in the assay with U-251 [6], 13.54%. For the same compound, the Activity in the assay on A549 [7] was determined as 79.8%; in the assay on A549 [8], 28.03%; with U-251 [9] it was 34.64%; in the assay on A549 [10], 3.89%; in the assay with A549 [11], 26.5%; in the assay on U-251 [12], 4.61%. The Activity is given as 2.01% with U-251 [13], 6.95% with U-251 [14] and 0.85% in the assay on A549 [15]. Also, in the assay on A549 [16], the IC50 worked out at 55 nM.
